In paper PMC9034974, “Physicochemical characterization of the recombinant lectin scytovirin and microbicidal activity of the SD1 domain produced in rice against HIV-1” (Plant Cell Reports, 2022):

Assays:
Type in all cases: binding
scytovirin (SVN) [1] = target: T1, scytovirin (SVN) (Scytonema varium, UniProt P86041); assay: isothermal titration calorimetry; conditions: 10 mM sodium phosphate pH 7.4, 3 mM sodium azide, 30 °C; one set of identical sites
T1 sequence (P86041 1-95): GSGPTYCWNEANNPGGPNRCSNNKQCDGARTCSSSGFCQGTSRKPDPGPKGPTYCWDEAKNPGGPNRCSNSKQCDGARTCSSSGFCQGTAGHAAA
Excerpt: isothermal titration calorimetry on scytovirin (SVN)

[2] = target: T2, SD1 (structural domain 1 of scytovirin) (Scytonema varium, UniProt P86041); assay: differential scanning calorimetry; conditions: 10 mM sodium phosphate pH 7.4, 3 mM sodium azide; 20 µM protein, 60 °C/h; shift is a decrease (destabilization)
T2 construct: isolated N-terminal domain SD1 (residues 1-48), recombinant from E. coli, purified
T2 sequence (P86041 1-48): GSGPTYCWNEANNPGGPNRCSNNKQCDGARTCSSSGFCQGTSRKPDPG

scytovirin (SVN) [3] = target: T1, scytovirin (SVN); assay: differential scanning calorimetry; conditions: 10 mM sodium phosphate pH 7.4, 3 mM sodium azide; 20 µM protein, 60 °C/h; Tm of the complex, not a shift; free SVN in the 2nd table, row 3
Excerpt: differential scanning calorimetry on scytovirin (SVN)

In the case of tetramannoside, the Kd (scytovirin (SVN) [1]) is reported as 17.8 ± 2.75 µM and the ΔTm [2] is reported as ~ 11.5 °C.
For nonamannoside, the Kd (scytovirin (SVN) [1]) was 3.99 ± 0.93 µM and the “Tm °C” value (scytovirin (SVN) [3]) was 56.50 ± 0.05 °C.
